# How the values were obtained:
# Test in all cases: NCI-60 single-dose anticancer screen
# Format in all cases: cell-based, human
# [1] = test system: A498 (Renal cancer); conditions: 10 µM single dose
# Procedure: (§1) Six compounds were selected by the NCI, according to NCI’s DTP selection guidelines, for evaluation of their anticancer activity at a single-dose of 10 µM against 60 human tumours cell lines.
# (§2) In vitro cytotoxicity was performed in NCI according to reported method.
# [2] = test system: A549/ATCC (Non-small cell lung cancer); conditions: 10 µM single dose
# Procedure: as §1, §2
# [3] = test system: ACHN (Renal cancer); conditions: 10 µM single dose
# Procedure: as §1, §2
# [4] = test system: BT-549 (Breast cancer); conditions: 10 µM single dose
# Procedure: as §1, §2
# [5] = test system: CAKI-1 (Renal cancer); conditions: 10 µM single dose
# Procedure: as §1, §2
# [6] = test system: CCRF-CEM (Leukaemia); conditions: 10 µM single dose
# Procedure: as §1, §2
# [7] = test system: COLO 205 (Colon cancer); conditions: 10 µM single dose
# Procedure: as §1, §2
# [8] = test system: DU-145 (Prostate cancer); conditions: 10 µM single dose
# Procedure: as §1, §2
# [9] = test system: EKVX (Non-small cell lung cancer); conditions: 10 µM single dose
# Procedure: as §1, §2
# [10] = test system: HCT-116 (Colon cancer)
# Procedure: as §1, §2
# [11] = test system: HCT-15 (Colon cancer); conditions: 10 µM single dose
# Procedure: as §1, §2
# [12] = test system: HL-60(TB) (Leukaemia); conditions: 10 µM single dose
# Procedure: as §1, §2
# [13] = test system: HOP-92 (Non-small cell lung cancer); conditions: 10 µM single dose
# Procedure: as §1, §2
# [14] = test system: HT29 (Colon cancer); conditions: 10 µM single dose
# Procedure: as §1, §2
# [15] = test system: IGROV1 (Ovarian cancer); conditions: 10 µM single dose
# Procedure: as §1, §2
# [16] = test system: K-562 (Leukaemia)
# Procedure: as §1, §2
# [17] = test system: KM12 (Colon cancer); conditions: 10 µM single dose
# Procedure: as §1, §2
# [18] = test system: MALME-3M (Melanoma); conditions: 10 µM single dose
# Procedure: as §1, §2
# [19] = test system: MCF7 (Breast cancer); conditions: 10 µM single dose
# Procedure: as §1, §2
# [20] = test system: MDA-MB-231/ATCC (Breast cancer); conditions: 10 µM single dose
# Procedure: as §1, §2
# [21] = test system: MDA-MB-435 (Melanoma); conditions: 10 µM single dose
# Procedure: as §1, §2
# [22] = test system: MDA-MB-468 (Breast cancer); conditions: 10 µM single dose
# Procedure: as §1, §2
# [23] = test system: NCI-H226 (Non-small cell lung cancer); conditions: 10 µM single dose
# Procedure: as §1, §2
# [24] = test system: NCI-H322M (Non-small cell lung cancer); conditions: 10 µM single dose
# Procedure: as §1, §2
# [25] = test system: NCI-H460 (Non-small cell lung cancer); conditions: 10 µM single dose
# Procedure: as §1, §2
# [26] = test system: NCI-H522 (Non-small cell lung cancer); conditions: 10 µM single dose
# Procedure: as §1, §2
# [27] = test system: OVCAR-3 (Ovarian cancer); conditions: 10 µM single dose
# Procedure: as §1, §2
# [28] = test system: OVCAR-4 (Ovarian cancer); conditions: 10 µM single dose
# Procedure: as §1, §2
# [29] = test system: OVCAR-5 (Ovarian cancer); conditions: 10 µM single dose
# Procedure: as §1, §2
# [30] = test system: PC-3 (Prostate cancer); conditions: 10 µM single dose
# Procedure: as §1, §2
# [31] = test system: RPMI-8226 (Leukaemia); conditions: 10 µM single dose
# Procedure: as §1, §2
# [32] = test system: RXF 393 (Renal cancer); conditions: 10 µM single dose
# Procedure: as §1, §2
# [33] = test system: SF-268 (CNS cancer); conditions: 10 µM single dose
# Procedure: as §1, §2
# [34] = test system: SF-295 (CNS cancer); conditions: 10 µM single dose
# Procedure: as §1, §2
# [35] = test system: SF-539 (CNS cancer); conditions: 10 µM single dose
# Procedure: as §1, §2
# [36] = test system: SK-MEL-2 (Melanoma); conditions: 10 µM single dose
# Procedure: as §1, §2
# [37] = test system: SK-MEL-28 (Melanoma); conditions: 10 µM single dose
# Procedure: as §1, §2
# [38] = test system: SK-MEL-5 (Melanoma); conditions: 10 µM single dose
# Procedure: as §1, §2
# [39] = test system: SK-OV-3 (Ovarian cancer); conditions: 10 µM single dose
# Procedure: as §1, §2
# [40] = test system: SN12C (Renal cancer); conditions: 10 µM single dose
# Procedure: as §1, §2
# [41] = test system: SNB-75 (CNS cancer); conditions: 10 µM single dose
# Procedure: as §1, §2
# [42] = test system: T-47D (Breast cancer); conditions: 10 µM single dose
# Procedure: as §1, §2
# [43] = test system: TK-10 (Renal cancer); conditions: 10 µM single dose
# Procedure: as §1, §2
# [44] = test system: U251 (CNS cancer); conditions: 10 µM single dose
# Procedure: as §1, §2
# [45] = test system: UACC-62 (Melanoma); conditions: 10 µM single dose
# Procedure: as §1, §2
# [46] = test system: UO-31 (Renal cancer); conditions: 10 µM single dose
# Procedure: as §1, §2
# [47] = Homo sapiens, read-out: cell growth inhibition
structure (smiles),measurement,setting,value
"COc1cc(C=CC(=O)c2ccc(N3CCNCC3)cc2)ccc1F [Ve, 3-(4-Fluoro-3-methoxyphenyl)-1-(4-(piperazin-1-yl)phenyl) prop-2-en-1-one]",cell growth promotion,[1],100.79%
same,cell growth promotion,[2],67.25%
same,cell growth promotion,[3],68.11%
same,cell growth promotion,[4],66.42%
same,cell growth promotion,[5],79.37%
same,cell growth promotion,[6],22.15%
same,inhibition at 10 µM,[6]; [47],77.8%
same,cell growth promotion,[7],83.00%
same,cell growth promotion,[8],105.61%
same,cell growth promotion,[9],97.12%
same,cell growth promotion,[10]; 10 µM single dose,27.43%
same,inhibition at 10 µM,[10]; [47],72.6%
same,cell growth promotion,[11],43.16%
same,cell growth promotion,[12],28.91%
same,inhibition at 10 µM,[12]; [47],71.1%
same,cell growth promotion,[13],55.00%
same,inhibition at 10 µM,[13]; [47],45%
same,cell growth promotion,[14],49.97%
same,cell growth promotion,[15],59.94%
same,cell growth promotion,[16]; 10 µM single dose,12.37%
same,inhibition at 10 µM,"[16]; Homo sapiens, K562, 10 µM single dose, read-out: cell growth inhibition",87.6%
same,cell growth promotion,[17],60.47%
same,cell growth promotion,[18],112.40%
same,cell growth promotion,[19],34.68%
same,inhibition at 10 µM,[19]; [47],65.3%
same,cell growth promotion,[20],94.50%
same,cell growth promotion,[21],80.14%
same,cell growth promotion,[22],46.48%
same,cell growth promotion,[23],86.54%
same,cell growth promotion,[24],73.01%
same,cell growth promotion,[25],97.07%
same,cell growth promotion,[26],61.19%
same,cell growth promotion,[27],70.18%
same,cell growth promotion,[28],68.87%
same,cell growth promotion,[29],121.73%
same,cell growth promotion,[30],51.40%
same,cell growth promotion,[31],49.59%
same,cell growth promotion,[32],101.92%
same,cell growth promotion,[33],94.03%
same,cell growth promotion,[34],95.92%
same,cell growth promotion,[35],95.87%
same,cell growth promotion,[36],85.44%
same,cell growth promotion,[37],106.02%
same,cell growth promotion,[38],79.33%
same,cell growth promotion,[39],87.98%
same,cell growth promotion,[40],57.67%
same,cell growth promotion,[41],89.05%
same,cell growth promotion,[42],74.40%
same,cell growth promotion,[43],101.24%
same,cell growth promotion,[44],67.21%
same,cell growth promotion,[45],80.13%
same,cell growth promotion,[46],58.35%

# From paper PMC7758046, “Novel piperazine–chalcone hybrids and related pyrazoline analogues targeting VEGFR-2 kinase; design, synthesis, molecular docking studies, and anticancer evaluation” (Journal of Enzyme Inhibition and Medicinal Chemistry, 2020)
